Reference: ChEMBL document CHEMBL1201862, “PubChem BioAssay data set” (2004)
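A five-concentration, 48-hour dose response in 96-well plates underlies each endpoint, interpolated linearly between surrounding concentrations. At the GI50, growth is halved.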 Calls of active or inactive are those of the source. Cut-off read from the data, not from the text of the source: active = GI50 up to about 1.1 µM and inactive = higher.

Columns and labels:
Assay in all cases: inhibition of tumour cell growth, NCI panel, 48 h
ACHN = system: ACHN
SF-295 = system: SF-295
RXF 393 = system: RXF 393
SK-OV-3 = system: SK-OV-3
CAKI-1 = system: CAKI-1
UO-31 = system: UO-31
MDA-MB-435 = system: MDA-MB-435
MDA-MB-231 = system: MDA-MB-231
RPMI-8226 = system: RPMI-8226
UACC-257 = system: UACC-257
SF-268 = system: SF-268
HOP-92 = system: HOP-92
HCT-15 = system: HCT-15
Hs-578T = system: Hs-578T
K562 = system: K562
UACC-62 = system: UACC-62
SF-539 = system: SF-539
786-0 = system: 786-0
MOLT-4 = system: MOLT-4
T47D = system: T47D

| Compound | GI50 (ACHN) | GI50 (SF-295) | GI50 (RXF 393) | GI50 (SK-OV-3) | GI50 (CAKI-1) | GI50 (UO-31) | GI50 (MDA-MB-435) | GI50 (MDA-MB-231) | GI50 (RPMI-8226) | GI50 (UACC-257) | GI50 (SF-268) | GI50 (HOP-92) | GI50 (HCT-15) [µM] | GI50 (Hs-578T) | GI50 (K562) | GI50 (UACC-62) | GI50 (SF-539) | GI50 (786-0) | GI50 (MOLT-4) | GI50 (T47D) |
| --- | --- | --- | --- | --- | --- | --- | --- | --- | --- | --- | --- | --- | --- | --- | --- | --- | --- | --- | --- | --- |
| Cc1cc(Cl)ccc1OCC(=O)Oc1c(Cl)c(Cl)c(Cl)c(Cl)c1Cl | 28.2 µM (inactive) | 24.1 µM (inactive) | 18.7 µM (inactive) | 27.9 µM (inactive) | 33 µM (inactive) | 17.1 µM (inactive) | 24.2 µM (inactive) | 18 µM (inactive) | 21.9 µM (inactive) | 19.6 µM (inactive) | 30.5 µM (inactive) | 17.3 µM (inactive) | 27 | 22.6 µM (inactive) | 35.2 µM (inactive) | 19 µM (inactive) | 38.7 µM (inactive) | 29.4 µM (inactive) | – | – |
| COc1cc(C(c2cc3c(cc2O)OCO3)N2CCCC2)cc(OC)c1OC (stereo not drawn) | 15.4 µM (inactive) | 18.6 µM (inactive) | – | 30.3 µM (inactive) | 13.6 µM (inactive) | 14.8 µM (inactive) | 13.4 µM (inactive) | 15.9 µM (inactive) | 11.6 µM (inactive) | 17.5 µM (inactive) | – | 7.96 µM (inactive) | 8.43 | – | 4.37 µM (inactive) | 15.8 µM (inactive) | – | 14.7 µM (inactive) | 3.96 µM (inactive) | 23.2 µM (inactive) |
| CCC1(c2ccc(OC)c(OC)c2)CCN(S(=O)(=O)c2ccc(C)cc2)C1 (stereo not drawn) | > 100 µM (inactive) | > 100 µM (inactive) | > 100 µM (inactive) | > 100 µM (inactive) | > 100 µM (inactive) | > 100 µM (inactive) | 82.6 µM (inactive) | > 100 µM (inactive) | – | > 100 µM (inactive) | > 100 µM (inactive) | – | > 100 | – | > 10 µM (inactive) | > 100 µM (inactive) | > 100 µM (inactive) | > 100 µM (inactive) | 19.2 µM (inactive) | > 100 µM (inactive) |
| COP(=O)(OC)OCN(C)CC/C=C(\C)CC/C=C(\C)CCC=C(C)C | 22.8 µM (inactive) | 16.6 µM (inactive) | 16.9 µM (inactive) | 28.5 µM (inactive) | 17.6 µM (inactive) | 14.1 µM (inactive) | 18.5 µM (inactive) | 20.2 µM (inactive) | 10.6 µM (inactive) | 5.02 µM (inactive) | 16.4 µM (inactive) | 17.6 µM (inactive) | 16 | – | 6.21 µM (inactive) | – | 15.7 µM (inactive) | 15.1 µM (inactive) | 13.6 µM (inactive) | 16.4 µM (inactive) |
| CNC(=O)CN(CC(=O)NC)C(=O)NC | > 100 µM (inactive) | > 100 µM (inactive) | > 100 µM (inactive) | > 100 µM (inactive) | > 100 µM (inactive) | > 100 µM (inactive) | – | – | > 100 µM (inactive) | > 100 µM (inactive) | > 100 µM (inactive) | > 100 µM (inactive) | > 100 | – | > 100 µM (inactive) | > 100 µM (inactive) | > 100 µM (inactive) | > 100 µM (inactive) | > 100 µM (inactive) | – |
| CN1C(=O)n2c(nc3ccccc32)C(N=[N+]=[N-])(N=[N+]=[N-])C1=O (stereo not drawn) | > 100 µM (inactive) | > 100 µM (inactive) | > 100 µM (inactive) | > 100 µM (inactive) | 35.2 µM (inactive) | > 100 µM (inactive) | – | – | > 100 µM (inactive) | > 100 µM (inactive) | > 100 µM (inactive) | 86.5 µM (inactive) | 99.1 | – | > 100 µM (inactive) | > 100 µM (inactive) | > 100 µM (inactive) | > 100 µM (inactive) | > 100 µM (inactive) | – |
| CCCCCCC(=O)C/C(CCC(=O)N(Cc1ccccc1)Cc1ccccc1)=N\Nc1ccc([N+](=O)[O-])cc1[N+](=O)[O-] | 27.3 µM (inactive) | 55.1 µM (inactive) | > 100 µM (inactive) | > 100 µM (inactive) | > 100 µM (inactive) | 51.6 µM (inactive) | – | – | 31.9 µM (inactive) | 48 µM (inactive) | 39.1 µM (inactive) | 51.1 µM (inactive) | 42.5 | – | 20.3 µM (inactive) | 16.2 µM (inactive) | 54.5 µM (inactive) | 58.5 µM (inactive) | > 10 µM (inactive) | – |
| CCOC(=O)C(Cc1ccccc1)(Cc1ccc(O)cn1)NC(=O)c1ccccc1 (stereo not drawn) | 35.8 µM (inactive) | 27.3 µM (inactive) | 23.8 µM (inactive) | 30.6 µM (inactive) | 26.2 µM (inactive) | 29.6 µM (inactive) | 9.51 µM (inactive) | 28.1 µM (inactive) | 25.9 µM (inactive) | 23.5 µM (inactive) | 17.7 µM (inactive) | 18.5 µM (inactive) | 19.7 | 16.3 µM (inactive) | 29.7 µM (inactive) | 16.7 µM (inactive) | 23.8 µM (inactive) | 24.9 µM (inactive) | 27.9 µM (inactive) | – |
| CC1CC(N2CCOCC2)=Nc2ccccc2N1Cc1ccccc1 (stereo not drawn) | > 100 µM (inactive) | 57.7 µM (inactive) | 16.1 µM (inactive) | 61.2 µM (inactive) | 25.2 µM (inactive) | > 100 µM (inactive) | 56.2 µM (inactive) | > 100 µM (inactive) | 48.2 µM (inactive) | 38.3 µM (inactive) | 74 µM (inactive) | – | > 100 | 34.4 µM (inactive) | 19 µM (inactive) | 44.6 µM (inactive) | – | > 100 µM (inactive) | – | – |
| COc1c2nc(CCl)[nH]c(=O)c2c(OC)c2nc(CCl)[nH]c(=O)c12 | > 100 µM (inactive) | > 100 µM (inactive) | > 100 µM (inactive) | > 100 µM (inactive) | > 100 µM (inactive) | > 100 µM (inactive) | – | – | > 100 µM (inactive) | > 100 µM (inactive) | > 100 µM (inactive) | > 100 µM (inactive) | > 100 | – | > 100 µM (inactive) | > 100 µM (inactive) | > 100 µM (inactive) | > 100 µM (inactive) | > 100 µM (inactive) | – |
| CCN(CC)Cc1cc(Nc2ccnc3ccc4c(nnn4C)c23)ccc1O | 2.81 µM (inactive) | 12.7 µM (inactive) | 11.5 µM (inactive) | 14.1 µM (inactive) | 13.5 µM (inactive) | 6.62 µM (inactive) | – | 17.2 µM (inactive) | – | 14.8 µM (inactive) | 10.2 µM (inactive) | – | 3.67 | 15.5 µM (inactive) | 5.24 µM (inactive) | 15 µM (inactive) | 5.33 µM (inactive) | 7.14 µM (inactive) | 3.86 µM (inactive) | 23.9 µM (inactive) |
| O=[N+]([O-])c1ccc2c(c1)S(=O)(=O)N1Cc3ccccc3CCN21 | > 100 µM (inactive) | 27.1 µM (inactive) | > 100 µM (inactive) | – | > 100 µM (inactive) | > 100 µM (inactive) | > 100 µM (inactive) | > 100 µM (inactive) | > 100 µM (inactive) | 29.1 µM (inactive) | 40.7 µM (inactive) | 62.2 µM (inactive) | > 100 | 26.7 µM (inactive) | > 100 µM (inactive) | > 100 µM (inactive) | 54.5 µM (inactive) | 97.5 µM (inactive) | > 100 µM (inactive) | – |
